In patent US5294634A, “Osteogenesis promoter” (Zeria Pharmaceutical Co., Ltd., priority 1989, dated 1994):

Legend:
[1] = tested on: rats; test: Oral acute toxicity (Test Example 2); format: in vivo, Wister male and female rats; conditions: 10 g/kg body weight, observation for 7 days, male and female rats
From the text: Using Wister male and female rats of 150-200 g by weight regarding 10 rats as respective groups, the crystalline zinc complex of L-carnosine in a dose of 10 g/kg body weight) was orally administered to each rat.

[2] = tested on: femoral diaphysis; test: Calcium content in femoral diaphysis of young rats (Test Example 1, osteogenesis-stimulating action); format: in vivo, young Wistar rats; conditions: oral, 5.5 mg/kg body weight in terms of zinc, once a day for 3 days; 24 h after last dose; average ± standard error; control 386.5 ± 6.5
Protocol: (§1) The osteogenesis-stimulating action of the zinc complex of L-carnosine was confirmed by the calcium content, zinc content, alkaline phosphatase activity and DNA content in the femoral diaphysis of young rats used. Zinc sulfate was used as a comparative compound.
(§2) Young Wistar rats were used regarding five rats as one group. […] A control group was orally given with a solvent alone.
(§3) The agent to be tested was administered for 3 days once a day in an amount corresponding to 5.5 mg/kg body weight in terms of zinc. Upon elapsed time of 24 hours after the last dose, the rats were sacrificed and the femoral regions were taken out of each rat under light ether anesthesia. Soft tissues and bone marrow were removed from the femoral region. The diaphysis and epiphysis (including metaphyseal tissues) were separated from each other to form fragments of the femoral diaphysis.
The femoral diaphysis tissue was ashed for 24 hours at 640° C. to weigh the resulting ash. Thereafter, the ash was dissolved in 6N hydrochloric acid to measure its calcium content by atomic absorption spectrophotometry. The calcium content in the bone was expressed in terms of mg per g of the bone ash.
(§4) The data were shown as average value±standard error. The significant difference was determined using the Student's t-test.

[3] = tested on: femoral diaphysis; test: Osteogenesis-stimulating action (overall, Test Example 1); format: in vivo, young Wistar rats; conditions: for change in zinc content, calcium content and alkaline phosphatase activity in the femoral diaphysis: oral, 5.5 mg/kg body weight in terms of zinc, 3 days, in words
Protocol: as §1, §2, §3

[4] = tested on: alkaline phosphatase; test: Alkaline phosphatase activity in femoral diaphysis of young rats (Test Example 1); format: in vivo, young Wistar rats; conditions: oral, 5.5 mg/kg body weight in terms of zinc, once a day for 3 days; 24 h after last dose; average ± standard error; control 1599.6 ± 74.5
Protocol: as §1, §2
The agent to be tested was administered for 3 days once a day in an amount corresponding to 5.5 mg/kg body weight in terms of zinc. Upon elapsed time of 24 hours after the last dose, the rats were sacrificed and the femoral regions were taken out of each rat under light ether anesthesia. […]
The femoral diaphysis tissue was immersed into 3 ml of ice-cold 6.5 mM barbital buffer solution (pH: 7.4) and then cut into pieces to uniformly grind them by a Potter-Blvehjem homogenizer equipped with a Teflon pestle. […] The alkaline phosphatase activity was determined in accordance with the Wallter-Schutt procedure [Bergmeyer HU (ed), Methods of enzymatic analysis, Vol. 1-2, Academic Press, New York, pp. 856-860 (1965)]. […] The concentration of protein was measured in accordance with the method by Lowry et al. [J. Biol. Chem., 193, 265-273 (1951)].
as §4

[5] = tested on: femoral diaphysis; test: Zinc content in femoral diaphysis of young rats (Test Example 1); format: in vivo, young Wistar rats; conditions: oral, 5.5 mg/kg body weight in terms of zinc, once a day for 3 days; 24 h after last dose; average ± standard error; control 156.9 ± 7.7
Protocol: as §1, §2, §3
A fragment of the femoral diaphysis was digested with nitric acid [Biochem. Pharmacol., 36, 4007-4012 (1986)] to measure the content of zinc by atomic adsorption spectrophotometry. The zinc content was expressed in terms of micrograms of zinc per gram of a wet bone.
as §4

[6] = tested on: femoral diaphysis; test: DNA content in femoral diaphysis of young rats (Test Example 1); format: in vivo, young Wistar rats; conditions: oral, 5.5 mg/kg body weight in terms of zinc; for change in DNA content in the femoral diaphysis: 3 days, in words; for DNA: once a day for 3 days, 24 h after last dose, average ± standard error, control 1.450 ± 0.020
Protocol: as §1, §2, §3
A small fragment of the fempral diaphysis was subjected to homogenization for bone tissue, followed by its shaking together with 4.0 ml of 0.1N sodium hydroxide solution cooled with ice. After the thus-treated homogenate was subjected to alkali extraction, the extract was centrifuged at 10,000×g for 5 minutes. The thus-obtained supernatant liquid was used for the measurement in accordance with the Ceriotti method [J. Biol. Chem., 214, 39-77 (1955)]. The DNA content was expressed in terms of the total DNA content (mg) per gram of a wet bone.
as §4

[7] = in vivo; cited from earlier work

Structure (SMILES) | dead cases [1] | Calcium content [2] [mg/g bone ash] | change in zinc content, calcium content and alkaline phosphatase activity in the femoral diaphysis [3] | osteogenesis-stimulating action compared with zinc sulfate ([3]; same amounts (5.5 mg/kg body weight) in terms of zinc) | Alkaline phosphatase [4] [μmol/min/mg protein] | Zinc [5] [μg/g wet bone] | change in DNA content in the femoral diaphysis [6] | DNA [6] [mg/g wet bone] | side effects [7]
NCCC(=O)[N-][C@@H](Cc1c[nH]cn1)C(=O)[O-].[Zn+2] [L-carnosine zinc complex, Crystalline Zinc Complex of L-Carnosine] | dead cases were not recognized | 458.1 ± 8.7 | increased | stronger osteogenesis-stimulating action than zinc sulfate | 1963.4 ± 118.3 | 235.0 ± 9.1 | increased | 2.931 ± 0.100 | 
O=S(=O)([O-])[O-].[Zn+2] [Zinc sulfate, zinc sulfate, reference compound] |  | 405.8 ± 4.5 | increased |  | 2580.5 ± 80.3 | 206.7 ± 9.8 | a significant change was not produced | 1.510 ± 0.050 | vomiting, nausea and diarrhea
